In ChEMBL document CHEMBL1817560, “Selectivity of kinase inhibitor fragments” (J Med Chem, 2011):
Each block holds one molecule with its values, some of them ahead of it.

What was measured:
[1] = biological target: Tyrosine-protein kinase SYK (Homo sapiens, UniProt P43405); assay: Inhibition of SYK expressed in Escherichia coli or baculovirus-infected insect cells by TR-FRET assay
[2] = biological target: Mitogen-activated protein kinase 8 (Homo sapiens, UniProt P45983); assay: Inhibition of JNK1 expressed in Escherichia coli or baculovirus-infected insect cells by TR-FRET assay
[3] = biological target: Mitogen-activated protein kinase 14 (Homo sapiens, UniProt Q16539); assay: Inhibition of p38alpha expressed in Escherichia coli or baculovirus-infected insect cells by TR-FRET assay
Chain of Mitogen-activated protein kinase 14 (Q16539 whole entry): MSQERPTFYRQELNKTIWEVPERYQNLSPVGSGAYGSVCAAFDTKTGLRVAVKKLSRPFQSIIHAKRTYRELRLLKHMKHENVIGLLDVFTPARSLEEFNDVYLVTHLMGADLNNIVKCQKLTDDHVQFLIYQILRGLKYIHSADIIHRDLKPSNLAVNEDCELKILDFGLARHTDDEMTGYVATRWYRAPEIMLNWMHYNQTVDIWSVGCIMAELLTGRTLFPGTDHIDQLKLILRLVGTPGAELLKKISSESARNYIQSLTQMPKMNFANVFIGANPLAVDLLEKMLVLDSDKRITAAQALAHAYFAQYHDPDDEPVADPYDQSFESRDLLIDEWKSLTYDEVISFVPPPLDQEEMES

Chain of Mitogen-activated protein kinase 8 (P45983 whole entry): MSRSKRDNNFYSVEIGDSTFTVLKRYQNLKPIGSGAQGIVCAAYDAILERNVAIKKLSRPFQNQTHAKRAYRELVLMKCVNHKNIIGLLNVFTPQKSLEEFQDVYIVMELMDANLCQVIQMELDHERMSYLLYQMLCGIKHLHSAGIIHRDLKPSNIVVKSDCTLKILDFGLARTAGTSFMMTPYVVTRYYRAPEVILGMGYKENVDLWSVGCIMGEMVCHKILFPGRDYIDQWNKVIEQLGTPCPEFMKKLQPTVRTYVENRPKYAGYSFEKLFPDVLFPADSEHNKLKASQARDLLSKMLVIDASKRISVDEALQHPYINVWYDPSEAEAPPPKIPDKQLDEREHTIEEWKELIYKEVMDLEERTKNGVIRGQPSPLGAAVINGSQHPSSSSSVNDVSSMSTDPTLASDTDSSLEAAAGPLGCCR

- IC50 [1]: > 660 µM
SMILES: O=C(Nc1ccccc1)Nc1ccccc1

- IC50 ([2]; read-out: IC50): > 667 µM
- IC50 ([2]; read-out: pIC50 (converted)): > 631 µM
SMILES: c1cnc2[nH]ccc2c1

- IC50 ([3]; read-out: IC50): > 667 µM
- IC50 ([3]; read-out: pIC50 (converted)): > 631 µM
SMILES: c1ccc(Nc2ncccn2)cc1
